Patent US7338977B2, “Anti-viral compounds” (Aids Care Pharma Limited, priority 2003, dated 2008)
≈ marks a conversion by molar mass, not a printed value.

Legend:
HIV = details: cited from earlier work; for REDUCTION IN VIRAL LOAD: patients, drug used on its own
[1] = cited from earlier work
[2] = human, in vivo; cited from earlier work
[3] = molecular target: T1, viral envelope protein gp120 interaction with the cellular receptor protein CD4 (Human immunodeficiency virus type 1 group M subtype B, UniProt P04578); assay: biochemical; type: binding, HIV; details: for activity in words, compared with AC-1: summary of Table 1, both tests
T1 construct: viral envelope protein gp120
Method: (§1) Two tests were performed: Test 1 was performed using infected blood, while Test 2 used cell cultures.
All stocks solutions were made 25 mM in distilled water and tested at same concentrations.
The procedure was carried out as follows: • 1 Plastic plates were coated with cellular receptor protein CD4. • 2 The plates were washed well before adding a predetermined, appropriate quantity of viral envelope protein gp120 for binding to CD4. • 3 To see inhibition by compounds, different concentrations were added a few minutes before adding gp120. • 4 The mixture was incubated at 37° C. for binding. • 5 The plates were then flashed well and bound gp120 was detected by reaction with anti-HIV antibodies, incubated for 12 hours at 4° C. • 6 The amount of antibody bound was detected by adding anti-Human antibodies attached to an enzyme horse raddish peroxidase. • 7 After another incubation and wash, the quantity of the enzyme was measured by adding substrate o-phenyl diamine (OPD). • 8 The colour developed was read at 492 nm. • 9 All incubations took three days for adding different reagents. The percentage of inhibition by compounds, was calculated from the standard curve obtained by using different dilutions of gp120 alone. Test 2

wild-type HIV-1 (111a) = assay: Test 2: syncytium formation in HIV-1 infected CEM cell cultures; type: cell-based; details: CEM cells, 4 days at 37° C., syncytium formation inhibited by 50%; for EC50: Human immunodeficiency virus 1, CCRF-CEM, 96 h
Method: as §1
The results shown in Table 1 for test 2 were obtained by testing cell cultures in accordance with the following procedure.
CEM cells were suspended at approximately 250,000 cells per milliliter of culture medium and infected with wild-type HIV-1 (111a) at approximately 100 times the 50% cell culture infective dose (CCID50) per milliliter. Then 100 μl of the infected cell suspensions were added to 200 μl microtiter plate wells containing 100 μl of an appropriate dilution of the test compounds. After 4 days incubation at 37° C. the cell cultures were microscopically examined for syncytium formation.

HIV-1 [4] = assay: Anti-HIV EC50 in cell cultures (benchmark AZT); details: in vitro
Description: The antigen Agp120 assay—the virus related antigen—is related to the number of virus particles produced by measuring glycoprotein gp120 in infected cell cultures.
The therapeutic index is selected so as not to damage healthy cells.

HIV-1 [5] = details: cells protected from HIV infection, cell cultures; cited from earlier work
cell growth = details: cited from earlier work

## CC(C)(C)NC(=O)[C@@H]1CN(Cc2cccnc2)CCN1C[C@@H](O)C[C@@H](Cc1ccccc1)C(=O)N[C@H]1c2ccccc2C[C@H]1O [Indinavir]
HIV
  REDUCTION IN VIRAL LOAD: 99%

## Nc1ccn([C@H]2CC[C@@H](CO)O2)c(=O)n1 [Zalcitabine]
HIV
  REDUCTION IN VIRAL LOAD: 50–90%

## dextran sulphate
[1]; before entry into the plasma
  stability after oral intake: degrades after oral intake before entry into the plasma
[1]
  oral absorption: poorly absorbed orally

## O=C1Nc2ccc(Cl)cc2[C@@](C#CC2CC2)(C(F)(F)F)O1 [Efavirenz]
HIV
  REDUCTION IN VIRAL LOAD: 50–90%
[2]
  SIDE EFFECTS: skin reaction

## CC(C)Nc1cccnc1N1CCN(C(=O)c2cc3cc(NS(C)(=O)=O)ccc3[nH]2)CC1 [Delaviridine]
HIV
  REDUCTION IN VIRAL LOAD: 50–90%
[2]
  SIDE EFFECTS: skin reaction

## O=C(O)COc1c(O)c2cc(c1O)C(c1ccc(F)cc1)c1cc(c(O)c(OCC(=O)O)c1O)C(c1ccc(F)cc1)c1cc(c(O)c(OCC(=O)O)c1O)C(c1ccc(F)cc1)c1cc(c(O)c(OCC(=O)O)c1O)C2c1ccc(F)cc1 (centres unmarked) [BC130202A]
[3]
  EC50: 5 µM
  activity in words, compared with AC-1: active
[3]; Conc 1.56 um
  % inhibition of gp120/CD4 binding: 19%
[3]; Conc 3.125 um
  % inhibition of gp120/CD4 binding: 32%
[3]; Conc 6.25 um
  % inhibition of gp120/CD4 binding: 46%
[3]; Conc 12.5 um
  % inhibition of gp120/CD4 binding: 56%
[3]; Conc 25 um
  % inhibition of gp120/CD4 binding: 70%
[3]; Conc 50 um
  % inhibition of gp120/CD4 binding: 82%
[3]; Conc 100 um
  % inhibition of gp120/CD4 binding: 90%
wild-type HIV-1 (111a)
  EC50: 10 µg/mL (≈ 8.61 µM)

## Cc1cn([C@H]2C=C[C@@H](CO)O2)c(=O)[nH]c1=O [Stavudine]
HIV
  REDUCTION IN VIRAL LOAD: 50–90%
[2]
  SIDE EFFECTS: peripheral neuropathy

## Cc1c(O)cccc1C(=O)N[C@@H](CSc1ccccc1)[C@H](O)CN1C[C@H]2CCCC[C@H]2C[C@H]1C(=O)NC(C)(C)C [Nelfinavir]
HIV
  REDUCTION IN VIRAL LOAD: 99%
[2]
  SIDE EFFECTS: diarrohea, nausea

## CC(C)CN(C[C@@H](O)[C@H](Cc1ccccc1)NC(=O)O[C@H]1CCOC1)S(=O)(=O)c1ccc(N)cc1 [Amprenavir]
HIV
  REDUCTION IN VIRAL LOAD: 99%
[2]
  SIDE EFFECTS: severe rash

## Cc1cn([C@H]2C[C@H](N=[N+]=[N-])[C@@H](CO)O2)c(=O)[nH]c1=O [Zidovudine]
HIV-1 [4]
  Therapeutic index (TC50/EC50 ratio): > 62,500
HIV-1 [5]
  EC50: ~0.016 µM
HIV
  REDUCTION IN VIRAL LOAD: 50–90%
HIV; used by itself
  benefit in treating HIV-infected individuals: no benefits in treating HIV-infected individuals
Cell growth
  CC50: > 1000 µM

## dodecapotassium acetate of p-bromopyrogallol P—F-phenyl tetramer [AC-1]
[3]; Conc 0.39 um
  % inhibition of gp120/CD4 binding: 48%
[3]; Conc 0.78 um
  % inhibition of gp120/CD4 binding: 55%
[3]; Conc 1.56 um
  % inhibition of gp120/CD4 binding: 62%
[3]; Conc 3.125 um
  % inhibition of gp120/CD4 binding: 70%
[3]; Conc 6.25 um
  % inhibition of gp120/CD4 binding: 82%
[3]; Conc 12.5 um
  % inhibition of gp120/CD4 binding: 86%
[3]; Conc 25 um
  % inhibition of gp120/CD4 binding: 91%
[3]; Conc 50 um
  % inhibition of gp120/CD4 binding: 93%
[3]; Conc 100 um
  % inhibition of gp120/CD4 binding: 96%
wild-type HIV-1 (111a)
  Test 2 EC50: 4 µg/mL

## O=c1[nH]cnc2c1ncn2[C@H]1CC[C@@H](CO)O1 [Didanosine]
HIV
  REDUCTION IN VIRAL LOAD: 50–90%
[2]
  SIDE EFFECTS: peripheral neuropathy, nausea vomiting, pancreatis

## O=C(O)COc1cc(OCC(=O)O)c2cc1C(c1ccc(F)cc1)c1cc(c(OCC(=O)O)cc1OCC(=O)O)C(c1ccc(F)cc1)c1cc(c(OCC(=O)O)cc1OCC(=O)O)C(c1ccc(F)cc1)c1cc(c(OCC(=O)O)cc1OCC(=O)O)C2c1ccc(F)cc1 (centres unmarked) [BC070202A]
[3]
  EC50: 75 µM
  activity in words, compared with AC-1: much less active than the compound AC-1
[3]; Conc 12.5 um
  % inhibition of gp120/CD4 binding: 24%
[3]; Conc 25 um
  % inhibition of gp120/CD4 binding: 24%
[3]; Conc 50 um
  % inhibition of gp120/CD4 binding: 31%
[3]; Conc 100 um
  % inhibition of gp120/CD4 binding: 54%
wild-type HIV-1 (111a)
  EC50: ≥ 20 µg/mL

## CC(C)(C)NC(=O)[C@@H]1C[C@@H]2CCCC[C@@H]2CN1C[C@@H](O)[C@H](Cc1ccccc1)NC(=O)[C@H](CC(N)=O)NC(=O)c1ccc2ccccc2n1 [Saquinavir]
HIV
  REDUCTION IN VIRAL LOAD: 99%
[2]
  SIDE EFFECTS: loose stools, nausea,

## CC(C)c1nc(CN(C)C(=O)N[C@H](C(=O)N[C@@H](Cc2ccccc2)C[C@H](O)[C@H](Cc2ccccc2)NC(=O)OCc2cncs2)C(C)C)cs1 [Ritonavir]
HIV
  REDUCTION IN VIRAL LOAD: 99%
[2]
  SIDE EFFECTS: diarrhoea nausea,

## Nc1nc(NC2CC2)c2ncn([C@H]3C=C[C@@H](CO)C3)c2n1 [Abacavir]
HIV
  REDUCTION IN VIRAL LOAD: 50–90%

## Cc1ccnc2c1NC(=O)c1cccnc1N2C1CC1 [Nevirapinc]
HIV
  REDUCTION IN VIRAL LOAD: 50–90%
[2]
  SIDE EFFECTS: skin reaction

## Nc1ccn([C@@H]2CS[C@H](CO)O2)c(=O)n1 [Lamivudine]
[2]
  SIDE EFFECTS: gastrointestinal
